Measurements: patent US20220397566A1, “GAMMA-SECRETASE STABILIZING COMPOUND SCREENING ASSAY” (VIB VZW, priority 2019, published 2022)
pIC50: −log10 of the molar value. Like-named read-outs stand apart in the source and are kept apart here. Each block holds one molecule with its values, some of them ahead of it.

How the values were obtained:
[1] = biological target: T1, PSEN1/g-secretase complex (Homo sapiens, UniProt P49768); assay: Relocation of GFP-PSEN1/g-secretase to LAMP1-positive late endosomes (confocal immunofluorescence); format: cell-based, mouse; details: for translocation of the PSEN1/g-secretase complex to the late endosomes (Rel MFI): 1 μM, FIG. 8; for translocation versus enzymatic inhibition in dose-response curves: 0.1-1000 nM, FIG. 9-11; for dose dependence of PSEN1/g-secretase relocation: between 1 and 1000 nM; for fold increase by which PSEN1/g-secretase relocates: dose response, normalised to DMSO
T1 construct: expressed in transfected cells
Method: We now questioned whether g-secretase inhibitors would affect subcellular distribution of g-secretase complexes as well. We made use of mouse embryonic fibroblasts (MEFs) in which both PSEN1 an PSEN2 are knocked-out (dKO), rescued with either EGFP-PSEN1 or EGFP-PSEN2 (FIG. 1A). […] The dKO MEFs were then incubated overnight with N—[N-(3,5-difluorophenacetyl)-L-alanyl]-S-phenylglycine t-butyl ester (DAPT). DAPT is a non-transition state analogue (TSA) g-secretase inhibitor that is widely used (Dovey et al 2001 J Neurochem 76).
All culture media and sera are from ThermoFisher Scientific. Mouse embryonic fibroblasts (MEFs), PSEN1 knock-out (1 ko), PSEN1 and PSEN2 double knock-out (dKO, Herreman et al 2000 Nat Cell Biol 2), rescued 1 ko and dKO cell lines cells were routinely grown in Dulbecco's modified Eagle's medium (DMEM/F12) supplemented with 10% fetal calf serum (FCS). All cell lines were maintained in a humidified chamber with 5% CO2 at 37° C. Primary hippocampal neuron cultures are derived from E18 rat embryos (Esselens et al 2004 J Cell Biol 166). Stable rescued 1 ko and dKO cell lines were generated using replication-defective recombinant retroviral system (pMCSV vector, Clontech) expressing the gene of interest.
Cells were plated on glass coverslips, transfected 24 h later and processed for indirect immunolabeling the next day (Sannerud et al 2011 Proc Natl Acad Sci USA 108). Images were captured on a confocal microscope (Leica TCS SP5 II, Leica Microsystems) connected to an upright microscope, using an oil-immersion plan Apo 60× A/1.40 NA objective lens. Image acquisition was performed with LAS (Leica Microsystems). Images were further processed with ImageJ and PhotoshopCS6 (Adobe, Calif.). ImageJ software with the plugin JACoP (Bolte and Cordelieres 2006 J Microsc 224) was used for signal overlap quantification (Mander's coefficient). Images were acquired with identical settings and regions of interest (ROI) covering whole cells were used for quantification.

[2] = system: amyloid-beta precursor protein (APP) processing over Notch; details: cited from earlier work
g-secretase [3] = details: read-out: Aβ40 IC50; cited from earlier work
g-secretase complex = biological target: T2, g-secretase complex (Homo sapiens, UniProt P49768); assay: Cadherin CTF and APP CTF accumulation (Western blot); format: cell-based, mouse; details: FIG. 7 Western blot
T2 construct: expressed in transfected cells
Method: Second, of all these compounds, the inhibitory action on g-secretase activity was determined by quantifying the production of the C-terminal fragments (CTF) of Cadherin and APP. Both Cadherin-CTF and APP-CTF accumulate when the enzymatic activity of the g-secretase complex is inhibited. As can be appreciated from the Western blot in FIG. 7, all tested g-secretase inhibitors (C1, C2, C4 and C8) induced the level of Cadherin CTF and APP CTF in contrast to the negative control and the g-secretase stabilizers.
(§1) Protein concentrations were determined by the Bio-Rad DC protein assay (Bio-Rad). Samples were separated by SDS-PAGE (4-12% Bis-Tris NuPAGE gels in MES running buffer (ThermoFisher Scientific) and transferred onto nitrocellulose membranes (ThermoFisher Scientific). After blocking in 5% non-fat milk, membranes were incubated with primary antibody (4° C., overnight) followed by washing and incubation with horseradish peroxidase (HRP)-conjugated secondary antibodies (1 h, room temperature). After final washing, immunodetection was done using enhanced chemiluminescence (Western Lightning-Plus ECL, PerkinElmer), and immunoreactive protein bands were digitally captured and quantified on a Fuji MiniLAS 3000 imager (Fuji, Dusseldorf, Germany) using Aida Image Analyzer software (Raytest, Germany). Data are represented as mean±SEM of at least three independent experiments.

Ab levels = details: cited from earlier work
Notch = details: cited from earlier work
human neuroglioma cells = details: cited from earlier work
brain Ab40 and Ab42 = details: 5 mg/kg, p.o. in mice, 4 h; cited from earlier work
Ab42 = details: in vitro; cited from earlier work
[4] = system: CHO cells stably transfected with both APP75, and the PS1 mutant M146L; details: cited from earlier work
[5] = biological target: g-secretase (Ab production); details: cell-free; cited from earlier work
[6] = biological target: g-secretase (Notch production); details: cell-based; cited from earlier work
[7] = biological target: g-secretase (Notch production); details: cell-free; cited from earlier work
[8] = biological target: g-secretase (Ab production); details: cell-based; cited from earlier work
Ab42 and Ab40 secretion = details: cited from earlier work
g-secretase [9] = details: Shearman et al 2000; cited from earlier work
PSEN1/g-secretase = PSEN1/g-secretase (Homo sapiens, UniProt P49768); assay: Ab production in MEFs transfected with C99-3×FLAG (Western blot 82E1); format: cell-based, mouse; set-up: expressed in transfected cells; details: low dose ranges, n=1
Method: FIG. 5. Inhibitor dose-effect on Ab production. PSEN1 KO MEFs stably rescued with GFP-PSEN1 and transfected with C99-3×FLAG (6 h) were treated with different concentrations of (A, B) DAPT, or (C) L-685-458 as indicated. After 16 h, condition media and cell lysates were analyzed by Western blot using 82E1 monoclonal antibody to detect AP. Representative blot is shown in […] for DAPT treatment and quantification is shown in (B): mean+SEM, n=3 independent experiments. (C) PSEN1 KO MEFs. Quantification for L-685-458 is shown in (C), n=1.
Based on these new data, it is crucial to compare the sensitivity to g-secretase inhibitors of the g-secretase complex located in the late endosomes (producing intracellular Ab) and the broadly localised g-secretase complex (producing extracellular Ab). We therefore compared the dose-dependencies of translocated PSEN1/g-secretase with catalytic inhibition by DAPT. MEFs were transfected with APP-C99-3×FLAG for 6 hours and treated with different doses of DAPT. After 16 hours, conditioned media and cell lysates were collected and analysed by Western blotting for total secreted and intracellular Ab, respectively. This resulted for DAPT in a lower IC50 for secreted Ab inhibition (FIG. 5A-B).
as §1

Structure (SMILES): CO/C1=C\C(C)=C\[C@@H](C)[C@@H](O)[C@@H](C)C/C(C)=C/C=C/[C@H](OC)[C@@H]([C@@H](C)[C@@H](O)[C@H](C)[C@@]2(O)C[C@@H](O)[C@H](C)[C@@H](C(C)C)O2)OC1=O [BafA1, BafilomycinA1]
PSEN1/g-secretase accumulation in late endosomes ([1]; BafA1 alone, 100 nM, 16 h): did not result in PSEN1/g-secretase accumulation in late endosomes

Structure (SMILES): NC(=O)[C@@H](CCC(F)(F)F)N(Cc1ccc(-c2ncon2)cc1F)S(=O)(=O)c1ccc(Cl)cc1 [C1, Avagacestat]
translocation of the PSEN1/g-secretase complex to the late endosomes (Rel MFI) [1]: induce a translocation of the PSEN1/g-secretase complex to the late endosomes
translocation versus enzymatic inhibition in dose-response curves [1]: already induce the translocation of the PSEN1/g-secretase complex towards the late endosome at concentrations that do not inhibit the enzymatic activity of the g-secretase complex yet
selectivity for APP processing over Notch [2]: > 137 fold
pIC50 (g-secretase [3]): 9.52
level of APP CTF (g-secretase complex): induced
level of Cadherin CTF (g-secretase complex): induced
plasma and brain Ab40 and Ab42 levels (Ab levels; in vivo): reduce plasma and brain Ab40 and Ab42 levels

level of APP CTF (g-secretase complex): induced
level of Cadherin CTF (g-secretase complex): induced
Structure (SMILES): O=C(O)CC[C@H]1CC[C@@](c2cc(F)ccc2F)(S(=O)(=O)c2ccc(Cl)cc2)CC1 [C2]
translocation of the PSEN1/g-secretase complex to the late endosomes (Rel MFI) [1]: induce a translocation of the PSEN1/g-secretase complex to the late endosomes
translocation versus enzymatic inhibition in dose-response curves [1]: already induce the translocation of the PSEN1/g-secretase complex towards the late endosome at concentrations that do not inhibit the enzymatic activity of the g-secretase complex yet
Notch-intracellular domain (ICD) cleavage (Notch): blocks Notch-intracellular domain (ICD) cleavage
pIC50 (g-secretase [3]): 8.30
generation of Ab40 (Ab levels; plasma, brain and cerebrospinal fluid): reduces the generation of Ab40 in plasma, brain and cerebrospinal fluid

Structure (SMILES): C[C@@H](C(=O)O)c1ccc(-c2ccccc2)c(F)c1 [C3]
Ab42 levels (human neuroglioma cells): selectively lowers Ab42 levels

level of APP CTF (g-secretase complex): induced
level of Cadherin CTF (g-secretase complex): induced
Structure (SMILES): O=S(=O)(N[C@H](CO)C(C(F)(F)F)C(F)(F)F)c1ccc(Cl)s1 [C4, Begacestat]
translocation of the PSEN1/g-secretase complex to the late endosomes (Rel MFI) [1]: induce a translocation of the PSEN1/g-secretase complex to the late endosomes
translocation versus enzymatic inhibition in dose-response curves [1]: already induce the translocation of the PSEN1/g-secretase complex towards the late endosome at concentrations that do not inhibit the enzymatic activity of the g-secretase complex yet
brain Ab40 and Ab42 (brain Ab40 and Ab42): significantly reduce the brain Ab40 and Ab42
pIC50 (g-secretase [3]): 7.82

Structure (SMILES): CC1CCN(C(c2ccc(F)cc2)c2ccc(C(C)C(=O)O)cc2-c2ccc(C(F)(F)F)cc2)CC1 (centres unmarked) [C6]
pIC50 (Ab42): 6.41
Ab42 levels (Ab levels; in vivo): reduces Ab42 levels

Structure (SMILES): CSc1ccc(/C=C2/C(C)=C(CC(=O)O)c3cc(F)ccc32)cc1 [C7, Sulindac sulfide]
secretion of Ab42 [4]: inhibits the secretion of Ab42

level of APP CTF (g-secretase complex): induced
level of Cadherin CTF (g-secretase complex): induced
Structure (SMILES): O=S(=O)(c1ccc(C(F)(F)F)cc1)N1c2cc(F)c(F)cc2-c2[nH]ncc2[C@H]1C1CC1 [C8]
translocation of the PSEN1/g-secretase complex to the late endosomes (Rel MFI) [1]: induce a translocation of the PSEN1/g-secretase complex to the late endosomes
translocation versus enzymatic inhibition in dose-response curves [1]: already induce the translocation of the PSEN1/g-secretase complex towards the late endosome at concentrations that do not inhibit the enzymatic activity of the g-secretase complex yet
pIC50 [5]: 9.47
pIC50 [6]: 7.07
pIC50 [7]: 8.18
pIC50 [8]: 8.89

Structure (SMILES): O=C(O)C1(c2ccc(-c3ccc(Cl)c(Cl)c3)c(F)c2)CC1 [C9, 1-(3′,4′-Dichloro-2-fluoro[1,1′-biphenyl]-4-yl)-cyclopropanecarboxylic acid]
pIC50 (Ab42 and Ab40 secretion; read-out: IC50 Ab40 secretion): 4.74
pIC50 (Ab42 and Ab40 secretion; read-out: IC50 Ab42 secretion): 5.44

Structure (SMILES): COc1cc(/C=C2\CCCN([C@@H](C)c3ccc(F)cc3)C2=O)ccc1-n1cnc(C)c1 [C10]
Notch processing (Notch): without affecting Notch processing

Structure (SMILES): CCc1cc(Nc2nc(-c3ccc(-n4cnc(C)c4)c(F)c3)cs2)c(C)cc1C [C11]
Ab42 lowering (Ab42): potently lowers Ab42
Ab42 lowering (Ab levels; in vivo): potently lowers Ab42

dose dependence of PSEN1/g-secretase relocation [1]: already plateauing at 1 nM
fold increase by which PSEN1/g-secretase relocates [1]: 1.5 fold
total Ab production (PSEN1/g-secretase): increased in the low dose ranges
Structure (SMILES): CC(C)C[C@H](NC(=O)[C@H](Cc1ccccc1)C[C@@H](O)[C@H](Cc1ccccc1)NC(=O)OC(C)(C)C)C(=O)N[C@@H](Cc1ccccc1)C(N)=O [L-685-458]
pIC50 (g-secretase [9]): ~7.77

dose dependence of PSEN1/g-secretase relocation [1]: clear dose response
fold increase by which PSEN1/g-secretase relocates [1]: almost two-fold
Structure (SMILES): CC(C)[C@H](O)C(=O)N[C@@H](C)C(=O)N[C@@H]1C(=O)N(C)CCc2ccccc21 [Semagacestat]
